{"source": "paper PMC3269340", "about": "“Pharmacokinetics of memantine in rats and mice” (PLoS Currents, 2012)", "key": {"[1]": {"assay": "Metabolite identification in rat liver microsomes", "assay_type": "in vitro ADME", "conditions": "10 µM, 1 mg/mL rat liver microsomal protein, 60 min", "description": "Metabolites of memantine were characterized following incubation in pooled rat liver microsomes. Incubation conditions were as described above (Section 4.1), except that for metabolite identification the memantine concentration was 10 µM, 1 mg/mL of liver microsomal protein was used, and the metabolites were identified following a 60 min incubation period. Control incubations (T=0 min) were used as reference, and testosterone incubations were used as a positive control.\nFull scan mass spectra were acquired by TOF-MS as accurate mass. The instruments were controlled and data acquired by Waters MassLynx™ version 4.1 (SCN 714) software. The TOF-MS spectra were interrogated and metabolite reports generated by Waters MetaboLynx™ XS software."}, "[2]": {"conditions": "cited from earlier work"}, "[3]": {"assay": "Stability in rat liver microsomes", "assay_type": "in vitro ADME", "conditions": "0.5 mg/mL pooled male microsomes, read-out: Intrinsic Clearance (Cl int) Liver Microsomes", "description": "(§1) Memantine (1 μM) was incubated in 0.5 mg/mL of pooled male rat, mouse, or human liver microsomes (obtained commercially), in 0.1 M phosphate buffer at 37 °C. After pre-warming the mixture for 5 min, reactions were initiated by the addition of NADPH (1 mM). Aliquots (80 μL) were taken at 0, 5, 10, 20 and 40 min, and the reaction immediately terminated by adding into 80 μL of acetonitrile containing an analytical internal standard (IS). Samples were centrifuged and the supernatant fractions analyzed by LC-MS/MS with multiple reaction monitoring (MRM). All incubations were performed in duplicate. Testosterone was used as the positive control. The MRM area response ratio of the analyte over IS for Time=0(control) was set to 100%, the relative decrease in MRM area ratio intensity over time against that of the control (percent parent decrease) was used to determine the half-life (t1/2) of memantine in the incubation. Half-life values were calculated from the relationship:\n(§2) t1/2 (min) = -0.693/λ, where λ is the slope of the Ln concentration vs time curve. The intrinsic clearance (Clint) was calculated as:\n(§3) Clint = (0.693 x incubation volume (μL))/(t½ (min) x mg of microsomal protein)"}, "[4]": {"assay": "Stability in human liver microsomes", "assay_type": "in vitro ADME", "conditions": "0.5 mg/mL pooled male microsomes, read-out: Intrinsic Clearance (Cl int) Liver Microsomes", "description": "as §1, §2, §3"}, "OCT2": {"biological_target": "T1, OCT2 (Homo sapiens, UniProt O15244)", "T1 construct": "expressed in transfected cells; host or cells: CHO cells", "T1 sequence (O15244 1-555)": "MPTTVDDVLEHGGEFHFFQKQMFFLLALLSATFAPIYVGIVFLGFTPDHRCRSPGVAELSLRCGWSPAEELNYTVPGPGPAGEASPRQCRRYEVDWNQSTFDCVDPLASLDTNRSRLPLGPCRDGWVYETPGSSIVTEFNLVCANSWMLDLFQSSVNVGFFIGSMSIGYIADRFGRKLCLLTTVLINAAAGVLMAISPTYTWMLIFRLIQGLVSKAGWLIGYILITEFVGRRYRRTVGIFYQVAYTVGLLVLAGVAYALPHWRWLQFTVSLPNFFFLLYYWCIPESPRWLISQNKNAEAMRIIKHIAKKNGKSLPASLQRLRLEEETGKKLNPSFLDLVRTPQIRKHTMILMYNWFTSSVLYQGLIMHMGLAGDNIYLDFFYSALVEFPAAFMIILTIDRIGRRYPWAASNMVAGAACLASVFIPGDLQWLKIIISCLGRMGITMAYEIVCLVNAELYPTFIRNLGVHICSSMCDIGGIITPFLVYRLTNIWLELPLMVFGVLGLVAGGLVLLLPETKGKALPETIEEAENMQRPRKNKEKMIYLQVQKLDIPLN", "assay": "Direct uptake transporter assay, OCT2", "assay_type": "in vitro ADME", "conditions": "for Accumulation in transporter transfected cells: OCT2-transfected cells; for Accumulation in parental cells: parental CHO cells (OCT2 line)", "description": "To determine whether memantine is a substrate of the human OATP2B1 (OATP-B), OCT1, OCT2, OAT3, PEPT1, PEPT2 uptake transporters.\nThe potential for memantine to be a substrate of an uptake transporter was determined directly by comparing the uptake of memantine into cells expressing the selected uptake transporter with its uptake into control cells. Memantine was added to transporter-expressing and control cells at two concentrations (PEPT1 and PEPT2 100 and 300 µM, OCT1 and OCT2 50 and 100 µM, OATP2B1 100 and 300 µM), and incubated with cells for 2 and 20 min at 37±1°C (75 µL final incubation volume). […] Incubations were carried out as described in the indirect uptake transporter assays. The concentration of memantine was determined by LC-MS/MS."}}, "note": "Like-named read-outs stand apart in the source and are kept apart here."}
{"smiles": "CC12CC3CC(C)(C1)CC(N)(C3)C2", "note": "[memantine]", "values": [{"measurement": "most abundant metabolite (based on uv signal response)", "setting": "[1]", "result": "product of a single aliphatic hydroxylation"}, {"measurement": "Cmax", "setting": "[2]; human plasma/serum, 10 mg twice daily po, normal renal clearance", "result": 83.5, "unit": "ng/mL"}, {"measurement": "Cmax", "setting": "[2]; human plasma/serum, 10 mg twice daily, read-out: Cmax", "result": 470, "unit": "nM"}, {"measurement": "Cmax", "setting": "[2]; human, 10 mg BID po, read-out: Cmax", "result": 470, "unit": "nM"}, {"measurement": "C min", "setting": "[2]; human, 10 mg BID", "result": 300, "unit": "nM"}, {"measurement": "Cmax/Cmin ratio at steady state", "setting": "[2]; human, 10 mg BID", "result": 1.54}, {"measurement": "renal clearance as share of total systemic clearance", "setting": "[2]; human, acidic conditions", "result": 92, "unit": "%"}, {"measurement": "renal clearance as share of total systemic clearance", "setting": "[2]; human, alkaline conditions", "result": "60-67%"}, {"measurement": "Total plasma clearance (Clp)", "setting": "[2]; human, normal renal function", "result": 182, "unit": "mL/min"}, {"measurement": "renal clearance (Clr)", "setting": "[2]; human, normal renal function", "result": 164, "unit": "mL/min"}, {"measurement": "share of total plasma clearance accounted for by renal clearance", "setting": "[2]; human, normal renal function", "result": 90, "unit": "%"}, {"measurement": "Tmax", "setting": "[2]; human, po", "result": "4 to 6", "unit": "h"}, {"measurement": "dose eliminated as intact memantine in the urine", "setting": "[2]; human", "result": "75-90%"}, {"measurement": "elimination half-life", "setting": "[2]; human", "result": "60 to 80", "unit": "h"}, {"measurement": "volume of distribution at steady state (Vdss)", "setting": "[2]; human", "result": "9 to 11", "unit": "L/kg"}, {"measurement": "microsomal CLint at 1 μM", "setting": "[3]", "result": 50.4, "unit": "µL/min/mg"}, {"measurement": "microsomal CLint at 1 μM", "setting": "[4]", "result": "< 13.9", "unit": "µL/min/mg"}, {"measurement": "substrate of OCT2 uptake transporter", "setting": "OCT2", "result": "appeared to be a substrate"}, {"measurement": "accumulation in transporter-transfected cells higher than in parental cells", "setting": "OCT2; OCT2", "result": "> 1.5", "unit": "fold"}, {"measurement": "Highest Fold Activation", "setting": "OCT2; OCT2, 100µM, 2 min", "result": "1.88 (100µM, 2 min)"}, {"measurement": "Accumulation in transporter transfected cells", "setting": "OCT2; 2 min, 50 µM", "result": 8492, "unit": "pmol/mg"}, {"measurement": "Accumulation in transporter transfected cells", "setting": "OCT2; 2 min, 100 µM", "result": 15071, "unit": "pmol/mg"}, {"measurement": "Accumulation in transporter transfected cells", "setting": "OCT2; 20 min, 50 µM", "result": 8866, "unit": "pmol/mg"}, {"measurement": "Accumulation in transporter transfected cells", "setting": "OCT2; 20 min, 100 µM", "result": 15495, "unit": "pmol/mg"}, {"measurement": "Accumulation in parental cells", "setting": "OCT2; 2 min, 50 µM", "result": 5660, "unit": "pmol/mg"}, {"measurement": "Accumulation in parental cells", "setting": "OCT2; 2 min, 100 µM", "result": 8000, "unit": "pmol/mg"}, {"measurement": "Accumulation in parental cells", "setting": "OCT2; 20 min, 50 µM", "result": 5790, "unit": "pmol/mg"}, {"measurement": "Accumulation in parental cells", "setting": "OCT2; 20 min, 100 µM", "result": 8459, "unit": "pmol/mg"}]}
